What follows are compounds tested on Escherichia coli (assay: Tested for inhibition of puromycin reaction and reported as equilibrium constant derived from primary and secondary kinetic plots for the inhibition of peptide bond formation).
Format: functional
`NC(Cc1ccccc1)C(=O)NCC(=O)NC(CO)C(O)c1ccc([N+](=O)[O-])cc1` (stereo unspecified) was tested, and the Ki was 1.5 µM. With `NC(Cc1ccccc1)C(=O)NC(CO)C(O)c1ccc([N+](=O)[O-])cc1` (stereo unspecified) the Ki was 18 µM. Work on `NCC(=O)NC(CO)C(O)c1ccc([N+](=O)[O-])cc1` (stereo unspecified) yielded a Ki of 5.5 µM. `O=C(N[C@H](CO)[C@H](O)c1ccc([N+](=O)[O-])cc1)C(Cl)Cl` [CHLORAMPHENICOL] gave a Ki of 0.7 µM. `NS(=O)(=O)c1ccc([C@@H](O)[C@@H](CO)NC(=O)C(Cl)Cl)cc1` [TEVENEL] was tested, and the Ki was 1.7 µM. `CS(=O)(=O)c1ccc([C@@H](O)[C@@H](CO)NC(=O)C(Cl)Cl)cc1` [THIAMPHENICOL] gave a Ki of 0.4 µM.
